Results reported in patent US4727080A, “1-substituted derivatives of 6-fluoro-7-(pyrrol-1-yl)-1,4-dihydro-4-oxoquinoline-3-carboxylic acid, their preparation and their application as drugs” (Provesan S.A., priority 1984, dated 1988).
In brackets after ≈: the same amount, converted by molar mass.

Tests used:
[1] = test system: Enterobacter aerogenes ATCC 15038; assay: "In vitro" MIC, Enterobacter aerogenes; format: cell-based; conditions: Klebsiella aerogenes, ATCC15038; Enterobacter aerogenes ATCC 15038; dextrose agar, 37° C., 20 hours; read-out: "In vitro" MIC
Experimental: (§1) Antimicrobial pharmacological activity (G. L. Daquet and Y. A. Chabbect, Techniques en bacteriologie (Techniques in bacteriology), vol. 3, Flammarion Medecine-Sciences, Paris, 1972, and W. B. Hugo and A. D. Rusell, Pharmaceutical Microbiology, Blackwell Scientific Publications, London (1977).
Enterobacter aerogenes ATCC 15038
(§2) A streak culture of each of the microorganisms is formed in tubes of antibiotics agar no. 1 and incubated for 20 hours at 37° C. A culture loop is then taken and a culture is formed in a tryptone-soya broth and incubated for 20 hours at 37° C. The resulting culture is diluted to 1/4 with Ringer's physiological solution to give a standardized suspension of 10^5 ufc/ml for each organism.
(§3) Starting from a solution of 1000 μg/ml in 0.1N NaOH, each product is diluted successively in dextrose agar (melted beforehand and kept at 50° C.) to give the following concentrations: 64-32-16-8-4-2-1-0.5-0.25-0.125 μg of derivative/ml of medium.
(§4) After this, each concentration of each product is divided up into Petri dishes of 10 cm diameter at a rate of 10 ml of medium per dish and using as many dishes as there are microorganisms to be tested.
(§5) Once the medium has cooled, the dishes are treated with the inoculations at a rate of 0.4 ml of inoculation per dish. They are spread out with a Drigalski loop and the supernatant is collected. The inoculated dishes are incubated at 37° C. for 20 hours.

[2] = test system: Streptococcus faecalis ATCC 10541; assay: "In vitro" MIC, Streptococcus faecalis; format: cell-based; conditions: Enterococcus faecalis, ATCC10541; Streptococcus faecalis ATCC 10541; dextrose agar, 37° C., 20 hours; read-out: "In vitro" MIC
Experimental: as §1
Streptococcus faecalis ATCC 10541
as §2, §3, §4, §5

[3] = test system: Salmonella typhimurium AMES 100; assay: "In vitro" MIC, Salmonella typhimurium AMES 100; format: cell-based; conditions: Salmonella enterica; Salmonella typhimurium AMES 100; dextrose agar, 37° C., 20 hours; read-out: "In vitro" MIC
Experimental: as §1
Salmonella typhimurium AMES 100
as §2, §3, §4, §5

[4] = test system: Bacillus subtilis ATCC 6633; assay: "In vitro" MIC, Bacillus subtilis; format: cell-based; conditions: ATCC6633; Bacillus subtilis ATCC 6633; dextrose agar, 37° C., 20 hours; read-out: "In vitro" MIC
Experimental: as §1
Bacillus subtilis ATCC 6633
as §2, §3, §4, §5

[5] = test system: Salmonella typhimurium AMES 98; assay: "In vitro" MIC, Salmonella typhimurium AMES 98; format: cell-based; conditions: Salmonella enterica; Salmonella typhimurium AMES 98; dextrose agar, 37° C., 20 hours; read-out: "In vitro" MIC
Experimental: as §1
Salmonella typhimurium AMES 98
as §2, §3, §4, §5

[6] = test system: Proteus mirabilis ATCC 4675; assay: "In vitro" MIC, Proteus mirabilis; format: cell-based; conditions: ATCC4675; Proteus mirabilis ATCC 4675; dextrose agar, 37° C., 20 hours; read-out: "In vitro" MIC
Experimental: as §1
Proteus mirabilis ATCC 4675
as §2, §3, §4, §5

[7] = test system: Serratia marcescens ATTC 13880; assay: "In vitro" MIC, Serratia marcescens; format: cell-based; conditions: ATTC13880; Serratia marcescens ATTC 13880; dextrose agar, 37° C., 20 hours; read-out: "In vitro" MIC
Experimental: as §1
Serratia marcescens ATTC 13880
as §2, §3, §4, §5

[8] = test system: Escherichia coli ATCC 10536; assay: "In vitro" MIC, Escherichia coli ATCC 10536; format: cell-based; conditions: ATCC10536; Escherichia coli ATCC 10536; dextrose agar, 37° C., 20 hours; read-out: "In vitro" MIC
Experimental: as §1
Escherichia coli ATCC 10536
as §2, §3, §4, §5

Shigella flexnerii = assay: "In vitro" MIC, Shigella flexnerii; format: cell-based; conditions: 20 h, read-out: "In vitro" MIC
Experimental: as §1, §2, §3, §4, §5

Gram-positive cocci = assay: "In vitro" antimicrobial activity compared with nalidixic acid, Gram-positive cocci; format: cell-based
Experimental: as §1, §2, §3, §4, §5

[9] = test system: Micrococcus flavus ATCC 10240; assay: "In vitro" MIC, Micrococcus flavus; format: cell-based; conditions: ATCC10240; Micrococcus flavus ATCC 10240; dextrose agar, 37° C., 20 hours; read-out: "In vitro" MIC
Experimental: as §1
Micrococcus flavus ATTC 10240
as §2, §3, §4, §5

Sarcina lutea ATCC 9341 = assay: "In vitro" MIC, Sarcina lutea; format: cell-based; conditions: Micrococcus luteus, ATCC9341; Sarcina lutea ATCC 9341; dextrose agar, 37° C., 20 hours; read-out: "In vitro" MIC
Experimental: as §1, §2, §3, §4, §5

Proteus morganii CHSP-16 = assay: "In vitro" MIC, Proteus morganii; format: cell-based; conditions: Morganella morganii, CHSP16; Proteus morganii CHSP-16; dextrose agar, 37° C., 20 hours; read-out: "In vitro" MIC
Experimental: as §1, §2, §3, §4, §5

[10] = test system: Staphylococcus aureus ATCC 5488/23; assay: "In vitro" MIC, Staphylococcus aureus ATCC 5488/23; format: cell-based; conditions: ATCC5488; Staphylococcus aureus ATCC 5488/23; dextrose agar, 37° C., 20 hours; read-out: "In vitro" MIC
Experimental: as §1
Staphylococcus aureus ATCC 5488/23
as §2, §3, §4, §5

[11] = test system: Klebsiella pneumoniae ATCC 10031; assay: "In vitro" MIC, Klebsiella pneumoniae; format: cell-based; conditions: ATCC10031; Klebsiella pneumoniae ATCC 10031; dextrose agar, 37° C., 20 hours; read-out: "In vitro" MIC
Experimental: as §1
Klebsiella pneumoniae ATCC 10031
as §2, §3, §4, §5

Acute toxicity to mice = conditions: mouse, in vivo, ip, suspension in 5% gum arabic, mortality over 7 days
Experimental: The experimental animals used to determine this toxicity were albino mice of the C.F.L.P. strain and of both sexes, weighing between 19 and 25 grams. After an 18-hour fasting period with water "ad libitum", the derivatives forming the subject of the present invention are administered intraperitoneally as a suspension in 5% gum arabic. The volume of suspension administered was 0.4 ml/20 grams (20 ml/kg) in all cases, the concentration of the suspension being changed according to the dose administered.
One hour after administration of the derivatives, the animals are given a standard Panlab rat-mouse food. The mortality was observed over a period of 7 days. Differences in mortality between the sexes were not observed with any of the products.

[12] = test system: Pseudomonas aeruginosa 25115; assay: "In vitro" MIC, Pseudomonas aeruginosa 25115; format: cell-based; conditions: Pseudomonas aeruginosa 25115; dextrose agar, 37° C., 20 hours; read-out: "In vitro" MIC
Experimental: as §1
Pseudomonas aeruginosa 25115
as §2, §3, §4, §5

[13] = test system: Gram-negative microorganisms; assay: "In vitro" antimicrobial activity compared with nalidixic acid, Gram-negative microorganisms; format: cell-based
Experimental: as §1, §2, §3, §4, §5

[14] = test system: Citrobacter freundii ATCC 11606; assay: "In vitro" MIC, Citrobacter freundii; format: cell-based; conditions: ATCC11606; Citrobacter freundii ATCC 11606; dextrose agar, 37° C., 20 hours; read-out: "In vitro" MIC
Experimental: as §1
Citrobacter freundii ATCC 11606
as §2, §3, §4, §5

Escherichia coli R-1513 = assay: "In vitro" MIC, Escherichia coli R-1513; format: cell-based; conditions: R1513; Escherichia coli R-1513; dextrose agar, 37° C., 20 hours; read-out: "In vitro" MIC
Experimental: as §1, §2, §3, §4, §5

[15] = test system: Pseudomonas aeruginosa ADSA 47; assay: "In vitro" MIC, Pseudomonas aeruginosa ADSA 47; format: cell-based; conditions: ADSA47; Pseudomonas aeruginosa ADSA 47; dextrose agar, 37° C., 20 hours; read-out: "In vitro" MIC
Experimental: as §1
Pseudomonas aeruginosa ADSA 47
as §2, §3, §4, §5

[16] = test system: Enterobacter cloacae CHSP-20; assay: "In vitro" MIC, Enterobacter cloacae; format: cell-based; conditions: CHSP20; Enterobacter cloacae CHSP-20; dextrose agar, 37° C., 20 hours; read-out: "In vitro" MIC
Experimental: as §1
Enterobacter cloacae CHSP-20
as §2, §3, §4, §5

[17] = test system: Staphylococcus aureus ATCC 25178; assay: "In vitro" MIC, Staphylococcus aureus ATCC 25178; format: cell-based; conditions: ATCC25178; Staphylococcus aureus ATCC 25178; dextrose agar, 37° C., 20 hours; read-out: "In vitro" MIC
Experimental: as §1
Staphylococcus aureus ATCC 25178
as §2, §3, §4, §5

[18] = test system: Enterobacteriaceae (Pseudomonas aeruginosa); assay: "In vitro" antimicrobial activity compared with nalidixic acid, Enterobacteriaceae (Pseudomonas aeruginosa); format: cell-based
Experimental: as §1, §2, §3, §4, §5

Row | SMILES | MIC [1] [µg/mL] | MIC [2] [µg/mL] | MIC [3] [µg/mL] | MIC [4] [µg/mL] | MIC [5] [µg/mL] | MIC [6] [µg/mL] | MIC [7] [µg/mL] | MIC [8] [µg/mL] | MIC (Shigella flexnerii) [µg/mL] | "in vitro" activity compared with nalidixic acid (Gram-positive cocci) | MIC [9] [µg/mL] | MIC (Sarcina lutea ATCC 9341) [µg/mL] | MIC (Proteus morganii CHSP-16) [µg/mL] | MIC [10] [µg/mL] | MIC [11] [µg/mL] | LD50 at 168 h (Acute toxicity to mice) [mg/kg] | MIC [12] [µg/mL] | MIC [14] [µg/mL] | MIC (Escherichia coli R-1513) [µg/mL] | MIC [15] [µg/mL] | further results
1 | Cn1cc(C(=O)O)c(=O)c2cc(F)c(-n3cccc3)cc21 [Example 1, 6-fluoro-7-(pyrrol-1-yl)-1-methyl-4-oxo-1,4-dihydroquinoline-3-carboxylic acid] | 2 (≈ 6.99 µM) | 32 (≈ 112 µM) | 8 (≈ 27.9 µM) | 0.125 (≈ 0.437 µM) | 4 (≈ 14 µM) | 4 (≈ 14 µM) | 16 (≈ 55.9 µM) | 0.05 (≈ 0.175 µM) | 4 (≈ 14 µM) | greater activity towards Gram-positive cocci | 4 (≈ 14 µM) | 16 (≈ 55.9 µM) | 2 (≈ 6.99 µM) | 0.5 (≈ 1.75 µM) | 1 (≈ 3.49 µM) | > 800 | 16 (≈ 55.9 µM) | 2 (≈ 6.99 µM) | 4 (≈ 14 µM) | ≥ 32 | activity compared with nalidixic acid [13]: activity of the same order as nalidixic acid; MIC [16]: 2 µg/mL (≈ 6.99 µM); MIC [17]: 0.5 µg/mL (≈ 1.75 µM)
2 | CCNn1cc(C(=O)O)c(=O)c2cc(F)c(-n3cccc3)cc21 [Example 8, 6-fluoro-7-(pyrrol-1-yl)-1-ethylamino-4-oxo-1,4-dihydroquinoline-3-carboxylic acid] | 2 (≈ 6.34 µM) | 4 (≈ 12.7 µM) | 1 (≈ 3.17 µM) | ≤ 0.062 | 0.062 (≈ 0.197 µM) | 8 (≈ 25.4 µM) | 2 (≈ 6.34 µM) | 0.062 (≈ 0.197 µM) | 1 (≈ 3.17 µM) | greater activity towards Gram-positive cocci | 2 (≈ 6.34 µM) | 4 (≈ 12.7 µM) | 4 (≈ 12.7 µM) | 0.25 (≈ 0.793 µM) | 0.25 (≈ 0.793 µM) | > 1600 | 16 (≈ 50.7 µM) | 4 (≈ 12.7 µM) | 4 (≈ 12.7 µM) | ≥ 32 | activity compared with nalidixic acid [13]: activity of the same order as nalidixic acid; MIC [16]: 1 µg/mL (≈ 3.17 µM); MIC [17]: 0.25 µg/mL (≈ 0.793 µM)
3 | O=C(O)c1cn(CCO)c2cc(-n3cccc3)c(F)cc2c1=O [Example 2, 6-fluoro-7-(pyrrol-1-yl)-1-(2-hydroxyethyl)-4-oxo-1,4-dihydroquinoline-3-carboxylic acid] | 2 (≈ 6.32 µM) | 1 (≈ 3.16 µM) | 0.25 (≈ 0.79 µM) | ≤ 0.062 | 0.25 (≈ 0.79 µM) | 1 (≈ 3.16 µM) | 1 (≈ 3.16 µM) | 0.125 (≈ 0.395 µM) | 1 (≈ 3.16 µM) | greater "in vitro" activity than nalidixic acid | 16 (≈ 50.6 µM) | 16 (≈ 50.6 µM) | 1 (≈ 3.16 µM) | 0.5 (≈ 1.58 µM) | 0.062 (≈ 0.196 µM) | > 1600 | 16 (≈ 50.6 µM) | 1 (≈ 3.16 µM) | 1 (≈ 3.16 µM) | ≥ 32 | "in vitro" activity compared with nalidixic acid [18]: greater "in vitro" activity than nalidixic acid; MIC [16]: 1 µg/mL (≈ 3.16 µM); MIC [17]: 0.5 µg/mL (≈ 1.58 µM)
